Assay results from patent US20240109896A1, “FGFR KINASE INHIBITOR AND USE THEREOF” (YA THERAPEUTICS INC, priority 2021, published 2024).
Where two headings read alike, the source gives them in different places.

Legend:
FGFR2 = FGFR2 (Homo sapiens, UniProt P21802); test: In vitro activity inhibition test for kinase FGFR2; format: biochemical; conditions: kinase assay, 25° C.; read-out: Inhibition of separase IC50 (nM) FGFR2
FGFR3 = FGFR3 (Homo sapiens, UniProt P22607); test: In vitro activity inhibition test for kinase FGFR3;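 further: FGFR3 kinase activity read by Caliper mobility shift assay, compounds run as 10-point 4-fold dilution series, final DMSO 0.5%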
Description: (§1) In Vitro Activity Inhibition Test for Kinases FGFR1, FGFR2, FGFR3 and FGFR4
(§2) The activity of FGFR1, FGFR2, FGFR3 and FGFR4 protein kinases was determined by Caliper mobility shift assay. Perform a 4-fold gradient dilution from a working concentration of 0.2 mM in DMSO, diluting 10 concentrations. Add 2 μL of compound to 78 μL of 1× compound buffer. There were 10 points each for the negative control and the positive control. Shake the board on the rocker for 20 min. […] The final concentration of DMSO was 0.5%.

FGFR1 = FGFR1 (Homo sapiens, UniProt P11362); test: In vitro activity inhibition test for kinase FGFR1
Description: as §1, §2

FGFR4 = FGFR4 (Homo sapiens, UniProt P22455); test: In vitro activity inhibition test for kinase FGFR4;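 further: caliper mobility shift assay of FGFR4 kinase activity, compounds tested as 10-point 4-fold dilution series with 0.5% DMSO final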
Sequence of FGFR4 (P22455 22-802): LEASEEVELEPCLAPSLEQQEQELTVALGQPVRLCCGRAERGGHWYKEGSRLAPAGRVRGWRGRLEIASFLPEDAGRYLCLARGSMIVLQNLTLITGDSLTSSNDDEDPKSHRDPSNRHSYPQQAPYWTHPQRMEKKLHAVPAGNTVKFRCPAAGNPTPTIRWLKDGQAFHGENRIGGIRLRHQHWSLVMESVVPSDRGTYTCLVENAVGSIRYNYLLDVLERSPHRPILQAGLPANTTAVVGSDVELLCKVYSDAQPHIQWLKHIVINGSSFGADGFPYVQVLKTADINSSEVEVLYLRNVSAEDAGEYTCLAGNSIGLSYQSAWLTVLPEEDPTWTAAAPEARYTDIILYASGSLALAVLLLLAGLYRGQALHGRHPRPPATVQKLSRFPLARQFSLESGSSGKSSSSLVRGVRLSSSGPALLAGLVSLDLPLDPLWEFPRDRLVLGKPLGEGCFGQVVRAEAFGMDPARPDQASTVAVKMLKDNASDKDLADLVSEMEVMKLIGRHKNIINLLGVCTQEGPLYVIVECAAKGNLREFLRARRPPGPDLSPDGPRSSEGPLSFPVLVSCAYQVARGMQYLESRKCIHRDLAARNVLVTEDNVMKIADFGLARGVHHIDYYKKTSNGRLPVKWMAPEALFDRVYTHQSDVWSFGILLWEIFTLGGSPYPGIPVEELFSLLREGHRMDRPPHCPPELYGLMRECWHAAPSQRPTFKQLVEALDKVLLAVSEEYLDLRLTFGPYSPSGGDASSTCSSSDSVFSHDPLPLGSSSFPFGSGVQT
Description: as §1, §2

Sequence of FGFR1 (P11362 22-822): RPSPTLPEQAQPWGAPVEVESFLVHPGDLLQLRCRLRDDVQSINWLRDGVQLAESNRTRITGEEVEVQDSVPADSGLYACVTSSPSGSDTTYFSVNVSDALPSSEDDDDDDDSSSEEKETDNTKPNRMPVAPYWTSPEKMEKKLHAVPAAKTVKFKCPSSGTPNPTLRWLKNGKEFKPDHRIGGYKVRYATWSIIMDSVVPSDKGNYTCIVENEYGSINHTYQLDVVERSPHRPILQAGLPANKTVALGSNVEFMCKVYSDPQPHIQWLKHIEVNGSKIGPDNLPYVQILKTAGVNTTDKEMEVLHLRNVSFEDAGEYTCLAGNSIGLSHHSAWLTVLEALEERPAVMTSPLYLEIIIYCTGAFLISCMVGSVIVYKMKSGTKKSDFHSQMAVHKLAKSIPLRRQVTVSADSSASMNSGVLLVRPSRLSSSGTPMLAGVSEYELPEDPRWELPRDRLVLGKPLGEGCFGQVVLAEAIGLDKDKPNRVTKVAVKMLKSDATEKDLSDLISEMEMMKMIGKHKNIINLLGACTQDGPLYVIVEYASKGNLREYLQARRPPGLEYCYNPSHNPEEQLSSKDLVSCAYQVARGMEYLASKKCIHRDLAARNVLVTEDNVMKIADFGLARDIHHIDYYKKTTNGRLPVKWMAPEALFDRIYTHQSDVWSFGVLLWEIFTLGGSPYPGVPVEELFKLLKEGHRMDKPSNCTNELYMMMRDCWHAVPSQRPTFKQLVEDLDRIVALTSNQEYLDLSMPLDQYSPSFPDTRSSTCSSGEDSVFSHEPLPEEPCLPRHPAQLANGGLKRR
Sequence of FGFR3 (P22607 23-806): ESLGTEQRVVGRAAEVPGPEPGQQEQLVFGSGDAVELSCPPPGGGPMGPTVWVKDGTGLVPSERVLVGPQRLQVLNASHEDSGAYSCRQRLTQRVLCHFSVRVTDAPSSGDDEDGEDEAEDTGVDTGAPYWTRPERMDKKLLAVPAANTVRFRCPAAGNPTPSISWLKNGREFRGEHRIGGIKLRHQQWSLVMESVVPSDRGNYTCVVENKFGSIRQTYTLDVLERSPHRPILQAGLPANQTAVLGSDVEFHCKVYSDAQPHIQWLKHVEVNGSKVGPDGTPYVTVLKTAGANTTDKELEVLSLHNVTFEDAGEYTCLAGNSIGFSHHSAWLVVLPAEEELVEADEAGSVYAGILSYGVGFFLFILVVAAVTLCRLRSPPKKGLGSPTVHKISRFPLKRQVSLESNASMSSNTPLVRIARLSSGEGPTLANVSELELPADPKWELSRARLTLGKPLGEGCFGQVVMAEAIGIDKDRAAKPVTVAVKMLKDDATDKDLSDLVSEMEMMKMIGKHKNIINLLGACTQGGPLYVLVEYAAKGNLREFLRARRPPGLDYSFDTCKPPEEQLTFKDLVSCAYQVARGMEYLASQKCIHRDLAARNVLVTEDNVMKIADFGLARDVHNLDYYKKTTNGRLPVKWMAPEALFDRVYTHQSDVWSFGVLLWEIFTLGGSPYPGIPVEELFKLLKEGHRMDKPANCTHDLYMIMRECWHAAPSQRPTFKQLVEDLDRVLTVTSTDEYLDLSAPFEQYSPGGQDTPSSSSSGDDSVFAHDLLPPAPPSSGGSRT
Sequence of FGFR2 (P21802 22-821): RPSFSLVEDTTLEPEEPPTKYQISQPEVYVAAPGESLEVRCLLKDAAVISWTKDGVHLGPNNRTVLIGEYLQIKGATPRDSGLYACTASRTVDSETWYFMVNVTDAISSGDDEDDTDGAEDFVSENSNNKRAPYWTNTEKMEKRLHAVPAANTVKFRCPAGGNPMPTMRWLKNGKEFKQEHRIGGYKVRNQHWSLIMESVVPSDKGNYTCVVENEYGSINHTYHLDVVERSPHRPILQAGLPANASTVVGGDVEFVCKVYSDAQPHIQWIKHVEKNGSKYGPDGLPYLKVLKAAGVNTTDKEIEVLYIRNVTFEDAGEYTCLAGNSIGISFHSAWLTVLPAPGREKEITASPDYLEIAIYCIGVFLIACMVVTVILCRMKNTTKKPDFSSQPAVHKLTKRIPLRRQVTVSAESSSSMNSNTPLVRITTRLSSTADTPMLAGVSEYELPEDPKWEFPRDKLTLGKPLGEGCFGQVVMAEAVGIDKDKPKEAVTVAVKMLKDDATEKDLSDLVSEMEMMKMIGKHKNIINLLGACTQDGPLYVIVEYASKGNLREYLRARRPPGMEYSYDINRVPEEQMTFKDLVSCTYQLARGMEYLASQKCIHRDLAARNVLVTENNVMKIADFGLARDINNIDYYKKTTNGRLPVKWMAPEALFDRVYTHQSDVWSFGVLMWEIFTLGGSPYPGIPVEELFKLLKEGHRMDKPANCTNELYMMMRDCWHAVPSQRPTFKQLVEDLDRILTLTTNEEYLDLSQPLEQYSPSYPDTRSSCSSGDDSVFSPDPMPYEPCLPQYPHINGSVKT

Molecule	IC50 (FGFR2)	IC50 (FGFR3)	IC50 (FGFR1)	IC50 (FGFR4)	IC50 (FGFR3; read-out: Inhibition IC50 (nM) FGFR3, kinase assay, 25° C.)	IC50 (FGFR1; read-out: Inhibition of FGFR1 IC50 (nM) FGFR1, kinase assay, 25° C.)	IC50 (FGFR4; read-out: Inhibition of kinase IC50 (nM) FGFR4, kinase assay, 25° C.)
C=CC(=O)N1CC[C@H](n2cc(-c3cn(C)c4ccccc34)c3c(N)n[nH]c(=O)c32)C1 [Compound 42, (S)-1-(1-acryloylpyrrolidin-3-yl)-4-amino-3-(1-methyl-1H-indol-3-yl)-1,6-dihydro-7H-pyrrolo[2,3-d]pyridazin-7-one]	< 10 nM	< 10 nM	< 10 nM	< 10 nM			
C=CC(=O)N1CC[C@H](Nc2ncc(C(F)(F)F)c(C#Cc3cc(OC)cc(OC)c3)n2)C1 [Compound 4, (S)-1-(3-((4-((3,5-dimethoxyphenyl)ethynyl)-5-(trifluoromethyl)pyrimidin-2-yl)amino)pyrrolidin-1-yl)prop-2-en-1-one]	100 to 500 nM	10 to 100 nM	10 to 100 nM	10 to 100 nM			
C=CC(=O)N1CC[C@H](n2cc(-c3cc4ccccc4o3)c3c(N)n[nH]c(=O)c32)C1 [Compound 41, (S)-1-(1-acryloylpyrrolidin-3-yl)-4-amino-3-(benzofuran-2-yl)-1,6-dihydro-7H-pyrrolo[2,3-d]pyridazin-7-one]	< 10 nM	< 10 nM	< 10 nM	< 10 nM			
CC#CC(=O)N1CC[C@H](n2cc(C#Cc3cc(OC)cc(OC)c3)c3c(N)n[nH]c(=O)c32)C1 [Compound 23, (S)-4-amino-1-(1-(but-2-ynoyl)pyrrolidin-3-yl)-3-((3,5-dimethoxyphenyl)ethynyl)-1,6-dihydro-7H-pyrrolo[2,3-d]pyridazin-7-one]	< 10 nM	< 10 nM	< 10 nM	< 10 nM			
(S)-4-amino-1-(1-(but-2-ynoyl)pyrrolidin-3-yl)-3-((2,6-difluoro-3,5-dimethoxyphenyl)ethynyl)-1,6-dihydro-7H-pyrazolo[3,4-d]pyridazin-7-one [Compound 29]	< 10 nM				< 10 nM	< 10 nM	< 10 nM
CC#CC(=O)N1CCC[C@H](n2nc(C#Cc3cc(OC)cc(OC)c3)c3c(N)n[nH]c(=O)c32)C1 [Compound 25, (S)-4-amino-1-(1-(but-2-ynoyl)piperidin-3-yl)-3-((3,5-dimethoxyphenyl)ethynyl)-1,6-dihydro-7H-pyrazolo[3,4-d]pyridazin-7-one]	< 10 nM	< 10 nM	< 10 nM	< 10 nM			
CC#CC(=O)N1CC[C@H](n2cc(-c3ccc4ccccc4c3)c3c(N)n[nH]c(=O)c32)C1 [Compound 39, (S)-4-amino-1-(1-(but-2-ynoyl)pyrrolidin-3-yl)-3-(naphthalen-2-yl)-1,6-dihydro-7H-pyrrolo[2,3-d]pyridazin-7-one]	< 10 nM	< 10 nM	< 10 nM	< 10 nM			
CC#CC(=O)N1CC[C@H](n2nc(C#Cc3cc(OC)cc(OC)c3)c3c(N)n[nH]c(=O)c32)C1 [Compound 27, (S)-4-amino-1-(1-(but-2-ynoyl)pyrrolidin-3-yl)-3-((3,5-dimethoxyphenyl)ethynyl)-1,6-dihydro-7H-pyrazolo[3,4-d]pyridazin-7-one]	< 10 nM	< 10 nM	< 10 nM	< 10 nM			
C=CC(=O)N1CC[C@H](n2cc(-c3ccc4ccccc4c3)c3c(N)n[nH]c(=O)c32)C1 [Compound 43, (S)-1-(1-acryloylpyrrolidin-3-yl)-4-amino-3-(naphthalen-2-yl)-1,6-dihydro-7H-pyrrolo[2,3-d]pyridazin-7-one]	< 10 nM	< 10 nM	< 10 nM	< 10 nM			
CC#CC(=O)N1CCC[C@H](n2cc(C#Cc3cc(OC)cc(OC)c3)c3c(N)n[nH]c(=O)c32)C1 [Compound 21, (S)-4-amino-1-(1-(but-2-ynoyl)piperidin-3-yl)-3-((3,5-dimethoxyphenyl)ethynyl)-1,6-dihydro-7H-pyrrolo[2,3-d]pyridazin-7-one]	< 10 nM	< 10 nM	< 10 nM	< 10 nM			
C=CC(=O)N1CC[C@H](n2cc(-c3cc4ccccc4n3C)c3c(N)n[nH]c(=O)c32)C1 [Compound 40, (S)-1-(1-acryloylpyrrolidin-3-yl)-4-amino-3-(1-methyl-1H-indol-2-yl)-1,6-dihydro-7H-pyrrolo[2,3-d]pyridazin-7-one]	< 10 nM	< 10 nM	< 10 nM	< 10 nM			
C=CC(=O)N1CC[C@H](Nc2ncc(Br)c(C#Cc3cc(OC)cc(OC)c3)n2)C1 [Compound 2, (S)-1-(3-((5-bromo-4-((3,5-dimethoxyphenyl)ethynyl)pyrimidin-2-yl)amino)pyrrolidin-1-yl)prop-2-en-1-one]	10 to 100 nM	100 to 500 nM	10 to 100 nM	100 to 500 nM			
C=CC(=O)N1CC[C@H](Nc2nccc(C#Cc3cc(OC)cc(OC)c3)n2)C1 [Compound 1, (S)-1-(3-((4-((3,5-dimethoxyphenyl)ethynyl)pyrimidin-2-yl)amino)pyrrolidin-1-yl)prop-2-en-1-one]	10 to 100 nM	100 to 500 nM	10 to 100 nM	10 to 100 nM			

Further lines, with some results ahead:

IC50 (FGFR2)	IC50 (FGFR3)	IC50 (FGFR1)	IC50 (FGFR4)	Molecule	IC50 (FGFR3; read-out: Inhibition IC50 (nM) FGFR3, kinase assay, 25° C.)	IC50 (FGFR1; read-out: Inhibition of FGFR1 IC50 (nM) FGFR1, kinase assay, 25° C.)	IC50 (FGFR4; read-out: Inhibition of kinase IC50 (nM) FGFR4, kinase assay, 25° C.)
< 10 nM	< 10 nM	< 10 nM	< 10 nM	C=CC(=O)N[C@H]1CCN(c2nc(N)c(C(N)=O)c(C#Cc3cc(OC)cc(OC)c3)n2)C1 [Compound 17, (S)-2-(3-acrylamidopyrrolidin-1-yl)-4-amino-6-((3,5-dimethoxyphenyl)ethynyl)pyrimidine-5-carboxamide]			
10 to 100 nM	10 to 100 nM	10 to 100 nM	10 to 100 nM	C=CC(=O)N1CC2(CC(Nc3nc(N)c(C(N)=O)c(C#Cc4cc(OC)cc(OC)c4)n3)C2)C1 [Compound 7, 2-((2-acryloyl-2-azaspiro[3.3]heptan-6-yl)amino)-4-amino-6-((3,5-dimethoxyphenyl)ethynyl)pyrimidine-5-carboxamide]			
< 10 nM	< 10 nM	< 10 nM	< 10 nM	CC#CC(=O)N1CC[C@H](Nc2nc(N)c(C(N)=O)c(C#Cc3cc(OC)cc(OC)c3)n2)C1 [Compound 12, (S)-4-amino-2-((1-(but-2-ynoyl)pyrrolidin-3-yl)amino)-6-((3,5-dimethoxyphenyl)ethynyl)pyrimidine-5-carboxamide]			
10 to 100 nM	100 to 500 nM	10 to 100 nM	10 to 100 nM	CC#CC(=O)N1CC[C@H](Nc2ncc(C(F)(F)F)c(C#Cc3cc(OC)cc(OC)c3)n2)C1 [Compound 14, (S)-1-(3-((4-((3,5-dimethoxyphenyl)ethynyl)-5-(trifluoromethyl)pyrimidin-2-yl)amino)pyrrolidin-1-yl)but-2-yn-1-one]			
< 10 nM	< 10 nM	< 10 nM	< 10 nM	C=CC(=O)N1CC[C@H](Nc2nc(N)c(C(N)=O)c(C#Cc3cc(OC)cc(OC)c3)n2)C1 [Compound 6, (S)-2-((1-acryloylpyrrolidin-3-yl)amino)-4-amino-6-((3,5-dimethoxyphenyl)ethynyl)pyrimidine-5-carboxamide]			
10 to 100 nM	10 to 100 nM	10 to 100 nM	100 to 500 nM	CC#CC(=O)N1CC[C@H](Nc2ncc(Br)c(C#Cc3cc(OC)cc(OC)c3)n2)C1 [Compound 13, (S)-1-(3-((5-bromo-4-((3,5-dimethoxyphenyl)ethynyl)pyrimidin-2-yl)amino)pyrrolidin-1-yl)but-2-yn-1-one]			
10 to 100 nM	100 to 500 nM	10 to 100 nM	10 to 100 nM	C=CC(=O)N1CCC[C@H](Nc2nc(N)c(C(N)=O)c(C#Cc3cc(OC)cc(OC)c3)n2)C1 [Compound 11, (S)-2-((1-acryloylpiperidin-3-yl)amino)-4-amino-6-((3,5-dimethoxyphenyl)ethynyl)pyrimidine-5-carboxamide]			
< 10 nM	< 10 nM	10 to 100 nM	< 10 nM	C=CC(=O)N1CCC(c2nc(N)c(C(N)=O)c(C#Cc3cc(OC)cc(OC)c3)n2)C1 (stereo not shown) [Compound 18, 2-(1-acryloylpyrrolidin-3-yl)-4-amino-6-((3,5-dimethoxyphenyl)ethynyl)pyrimidine-5-carboxamide]			
< 10 nM	< 10 nM	< 10 nM	< 10 nM	C=CC(=O)N1CC[C@@H](Nc2nc(N)c(C(N)=O)c(C#Cc3cc(OC)cc(OC)c3)n2)C1 [Compound 15, (R)-2-((1-acryloylpyrrolidin-3-yl)amino)-4-amino-6-((3,5-dimethoxyphenyl)ethynyl)pyrimidine-5-carboxamide]			
< 10 nM	10 to 100 nM	< 10 nM	10 to 100 nM	C=CC(=O)N1CC[C@H](Nc2ncc(C(N)=O)c(C#Cc3cc(OC)cc(OC)c3)n2)C1 [Compound 16, (S)-2-((1-acryloylpyrrolidin-3-yl)amino)-4-((3,5-dimethoxyphenyl)ethynyl)pyrimidine-5-carboxamide]			
10 to 100 nM	10 to 100 nM	100 to 500 nM	100 to 500 nM	C=CC(=O)N1CCC2(CC(Nc3nc(N)c(C(N)=O)c(C#Cc4cc(OC)cc(OC)c4)n3)C2)C1 (stereo not shown) [Compound 8, 2-((6-acryloyl-6-azaspiro[3.4]octan-2-yl)amino)-4-amino-6-((3,5-dimethoxyphenyl)ethynyl)pyrimidine-5-carboxamide]			
10 to 100 nM	100 to 500 nM	10 to 100 nM	10 to 100 nM	C=CC(=O)N1CCC(Nc2nc(N)c(C(N)=O)c(C#Cc3cc(OC)cc(OC)c3)n2)CC1 [Compound 10, 2-((1-acryloylpiperidin-4-yl)amino)-4-amino-6-((3,5-dimethoxyphenyl)ethynyl)pyrimidine-5-carboxamide]			
